Earlier results, collected in patent publication US12295926B1, “Modified release gamma-hydroxybutyrate formulations having improved pharmacokinetics” (Flamel Ireland Limited, priority 2022, dated 2025).
Read-outs that look alike come from different tables or passages of the source.

Columns and labels:
mouse = conditions: 2-year
rat [1] = conditions: 2-year
rats [2] = tested on: rats
rats [3] = conditions: highest dose tested (1,000 mg/kg/day)
[4] = 6 g per day with diclofenac 50 mg twice per day
pregnant rats = conditions: 150, 350, or 1,000 mg/kg/day
CYP3A = conditions: up to 3 mM (378 mcg/mL)
male and female rats = conditions: 150, 350, or 1,000 mg/kg/day
[5] = 6 g per day with ibuprofen 800 mg four times per day
[6] = not given; remark: listed apart in the source
CYP1A2 = molecular target: T1, CYP1A2 (Homo sapiens, UniProt P05177); conditions: up to 3 mM (378 mcg/mL)
T1 sequence (P05177 1-516): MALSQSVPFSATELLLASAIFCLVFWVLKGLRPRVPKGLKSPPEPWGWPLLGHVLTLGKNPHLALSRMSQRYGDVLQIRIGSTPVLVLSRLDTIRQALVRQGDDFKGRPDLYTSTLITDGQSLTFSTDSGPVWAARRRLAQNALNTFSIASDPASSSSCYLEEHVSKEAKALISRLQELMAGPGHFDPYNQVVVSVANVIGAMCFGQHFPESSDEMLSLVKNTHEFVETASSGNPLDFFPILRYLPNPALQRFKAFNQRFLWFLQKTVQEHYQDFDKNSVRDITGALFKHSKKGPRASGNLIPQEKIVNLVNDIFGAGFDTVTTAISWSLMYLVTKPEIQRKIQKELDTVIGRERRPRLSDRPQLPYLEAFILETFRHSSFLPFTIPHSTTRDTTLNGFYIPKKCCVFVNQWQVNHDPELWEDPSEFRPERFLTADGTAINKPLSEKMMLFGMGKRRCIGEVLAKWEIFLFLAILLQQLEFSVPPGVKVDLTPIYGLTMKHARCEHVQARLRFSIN

rat [7] = conditions: in vivo
CYP2C9 = CYP2C9 (Homo sapiens, UniProt P11712); conditions: up to 3 mM (378 mcg/mL)
[8] = 4.5 g oral
CYP2C19 = CYP2C19 (Homo sapiens, UniProt P33261); conditions: up to 3 mM (378 mcg/mL)
CYP2E1 = CYP2E1 (Homo sapiens, UniProt P05181); conditions: up to 3 mM (378 mcg/mL)
plasma proteins = conditions: 3 mcg/mL to 300 mcg/mL
CYP2D6 = CYP2D6 (Homo sapiens, UniProt P10635); conditions: up to 3 mM (378 mcg/mL)
pregnant rabbits = conditions: 300, 600, or 1,200 mg/kg/day
rats [9] = conditions: 0, 100, 300, or 900 mg/kg/day

CYP2C19, sequence (P33261 whole entry): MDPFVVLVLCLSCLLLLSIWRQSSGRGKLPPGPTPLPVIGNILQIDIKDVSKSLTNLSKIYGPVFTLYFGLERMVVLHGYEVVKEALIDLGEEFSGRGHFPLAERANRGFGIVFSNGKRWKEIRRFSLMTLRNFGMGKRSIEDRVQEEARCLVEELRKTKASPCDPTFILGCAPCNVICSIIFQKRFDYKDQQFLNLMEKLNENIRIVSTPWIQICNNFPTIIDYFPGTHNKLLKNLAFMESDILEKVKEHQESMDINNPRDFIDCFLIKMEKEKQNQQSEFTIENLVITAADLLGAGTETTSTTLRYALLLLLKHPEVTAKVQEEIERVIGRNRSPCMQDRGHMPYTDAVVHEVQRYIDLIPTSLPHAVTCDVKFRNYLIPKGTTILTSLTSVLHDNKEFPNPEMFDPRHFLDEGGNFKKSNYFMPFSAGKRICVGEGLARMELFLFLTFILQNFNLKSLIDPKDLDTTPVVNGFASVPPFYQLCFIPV
CYP2D6, sequence (P10635 whole entry): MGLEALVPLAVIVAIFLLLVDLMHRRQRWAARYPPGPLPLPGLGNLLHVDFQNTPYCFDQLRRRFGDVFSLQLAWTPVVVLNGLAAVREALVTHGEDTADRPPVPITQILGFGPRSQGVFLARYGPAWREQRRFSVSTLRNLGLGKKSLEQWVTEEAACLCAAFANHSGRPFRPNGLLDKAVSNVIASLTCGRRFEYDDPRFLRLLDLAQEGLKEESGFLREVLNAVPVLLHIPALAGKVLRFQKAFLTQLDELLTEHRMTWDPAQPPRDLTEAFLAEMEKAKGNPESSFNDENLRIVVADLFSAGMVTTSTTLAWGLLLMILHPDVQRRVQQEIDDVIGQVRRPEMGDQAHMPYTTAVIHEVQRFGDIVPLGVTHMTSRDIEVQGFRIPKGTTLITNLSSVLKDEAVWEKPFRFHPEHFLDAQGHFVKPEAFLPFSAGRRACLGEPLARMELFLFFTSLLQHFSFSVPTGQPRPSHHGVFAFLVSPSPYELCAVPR
CYP2C9, sequence (P11712 whole entry): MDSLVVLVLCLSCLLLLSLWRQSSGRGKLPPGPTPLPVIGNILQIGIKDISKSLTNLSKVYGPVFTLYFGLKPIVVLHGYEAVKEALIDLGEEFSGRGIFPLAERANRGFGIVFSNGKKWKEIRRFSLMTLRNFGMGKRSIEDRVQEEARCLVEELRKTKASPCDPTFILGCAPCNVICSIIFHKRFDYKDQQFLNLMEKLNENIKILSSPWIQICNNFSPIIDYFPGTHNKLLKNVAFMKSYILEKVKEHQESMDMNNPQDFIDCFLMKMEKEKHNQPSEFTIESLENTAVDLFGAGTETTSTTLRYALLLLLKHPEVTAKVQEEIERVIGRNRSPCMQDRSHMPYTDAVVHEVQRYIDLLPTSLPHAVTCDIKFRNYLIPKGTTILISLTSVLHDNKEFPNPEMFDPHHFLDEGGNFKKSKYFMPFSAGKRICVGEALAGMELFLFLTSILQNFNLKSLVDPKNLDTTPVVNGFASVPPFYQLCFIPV
CYP2E1, sequence (P05181 whole entry): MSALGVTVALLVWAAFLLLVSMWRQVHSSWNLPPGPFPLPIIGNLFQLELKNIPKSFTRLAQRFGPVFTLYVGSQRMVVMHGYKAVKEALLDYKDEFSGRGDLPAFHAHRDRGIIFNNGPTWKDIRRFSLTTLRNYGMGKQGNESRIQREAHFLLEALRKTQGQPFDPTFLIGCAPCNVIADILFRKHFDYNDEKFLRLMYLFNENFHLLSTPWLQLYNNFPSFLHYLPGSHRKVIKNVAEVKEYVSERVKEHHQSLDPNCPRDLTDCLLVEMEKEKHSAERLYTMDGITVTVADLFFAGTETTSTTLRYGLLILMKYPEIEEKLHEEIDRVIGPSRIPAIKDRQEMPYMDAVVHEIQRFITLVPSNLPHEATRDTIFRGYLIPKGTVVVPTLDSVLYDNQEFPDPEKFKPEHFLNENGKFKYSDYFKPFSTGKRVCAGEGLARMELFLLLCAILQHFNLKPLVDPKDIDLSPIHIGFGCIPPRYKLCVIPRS

O=C1CCCO1 [gamma-butyrolactone]
Carcinogenic activity (mouse): no clear evidence of carcinogenic activity | Carcinogenic activity (rat [1]): no clear evidence of carcinogenic activity

O=C([O-])CCCO.[Na+] [sodium oxybate, sodium 4-hydroxybutanoate]
Plasma exposure (AUC) relative to humans at the MRHD (rats [2]; highest dose tested): 2 times | Tumors (rats [2]; up to 1,000 mg/kg/day for 83 (males) or 104 (females) weeks): no increase in tumors | Chromosomal aberration (mammalian cells): negative | Pre- and post-natal effects (rats [3]): increased stillbirths and decreased offspring postnatal viability and body weight gain | Systemic exposure to GHB on co-administration [4]: no significant differences in systemic exposure to GHB | Developmental toxicity (pregnant rats): no clear evidence of developmental toxicity | Apparent volume of distribution (in vivo): 0.19 to 0.384 L/kg | Elimination half-life (in vivo): 30 to 60 min | Unchanged drug in human urine (within 6 to 8 hours after dosing): less than 5% | Inhibition of CYP3A (CYP3A): does not significantly inhibit | Effects on fertility (male and female rats): no adverse effects on fertility | Systemic exposure to GHB on co-administration [5]: comparable systemic exposure to GHB | AUC in cirrhotic patients vs normal hepatic function ([6]; 25 mg/kg oral): double | Apparent oral clearance ([6]; Child's Class A): 0.27 L/h/kg | Apparent oral clearance ([6]; Child's Class C): 0.246 L/h/kg | Apparent oral clearance ([6]; healthy adults): 0.546 L/h/kg | Inhibition of CYP1A2 (CYP1A2): does not significantly inhibit | Micronucleus (rat [7]): negative | Inhibition of CYP2C9 (CYP2C9): does not significantly inhibit | Gender differences in pharmacokinetics of GHB [8]: no gender differences | Inhibition of CYP2C19 (CYP2C19): does not significantly inhibit | Inhibition of CYP2E1 (CYP2E1): does not significantly inhibit | Bacterial gene mutation (bacteria): negative | Bound to plasma proteins (plasma proteins): less than 1% | Inhibition of CYP2D6 (CYP2D6): does not significantly inhibit | Developmental toxicity (pregnant rabbits): no clear evidence of developmental toxicity | Mortality in juvenile rats (rats [9]): mortality was observed at the two highest doses tested
